Values quoted from earlier work, collected in US8178516B2, “Compositions and method for treatment of chronic inflammatory diseases” (Sylvan Labs, LLC, priority 1992, dated 2012).

Key:
myocardial glutathione = settings: subsequent to experimental ischemia and reperfusion
[1] = system: plasma cysteine, plasma glutathione and red blood cell glutathione; settings: in vivo

CC(=O)N[C@@H](CS)C(=O)O [N-acetylcysteine]
increase in myocardial glutathione (myocardial glutathione): 100 fold | levels of plasma cysteine, plasma glutathione and red blood cell glutathione [1]: increase
